Reference: patent US20120077786A1, “METHODS AND COMPOSITIONS FOR DISEASE TREATMENT USING INHALATION” (priority 2010, published 2012)

Tests used:
[1] = system: adults with hereditary emphysema; details: cited from earlier work
[2] = system: mice exposed to cigarette smoke; details: cited from earlier work
[3] = system: adult rats with preexisting elastase-induced emphysema; details: cited from earlier work
[4] = Aerosol performance of dry powder inhaler formulation, next generation Impactor; type: physicochemical; details: inhaler operated at 15 L/min
Procedure: Inhaled corticosteroids (ICS) mometasone furoate or fluticasone furoate are prepared with volume median particle size of less than 5 microns. Calcitriol (1, 25-Dihydroxycholecalciferol) is also prepared in crystalline form and subsequently micronized to a volume median particle size of less than 5 microns. The ICS's are incorporated at appropriately 30-50% of the commercial ICS dose when administered via a passive dry powder inhaler, due to the efficiency of the invention delivered by a dry powder inhaler (DPI) available from MicroDose Therapeutx, Inc. One preferred embodiment utilizes an ICS dosed once daily, i.e. mometasone furoate or fluticasone furoate, to coincide with a once daily dose of the vitamin D receptor agonist. This combination product is designed to reverse corticoidsteroid resistance (CR) by adding the protective anti-inflammatory effects of calcitriol with the local anti-inflamatory effects of these ICS's. The inhaler is operated at 15 L/min and for both medicaments, the aerosol performance with a fine particle fraction (% of particles exiting the inhaler that are less than 5.8 microns) is […] with at least 10% of particles in the less than 2.1 micron size range when tested with a next generation Impactor.
Calcitriol is a synthetic vitamin D analog and has been used as a pharmaceutical as well as a nutraceutical. […]

[5] = system: cell line cultured from patients with corticosteroid resistant asthma; details: after addition of vitamin D; promotion of regulatory T cells; cited from earlier work
[6] = system: asthmatic adults; details: cited from earlier work
[7] = system: Airway smooth muscle; details: cited from earlier work
[8] = system: patients with COPD; details: extrafine, 1.1 microns in diameter, HFA pMDI; cited from earlier work

Compound: CC1=C(/C=C/C(C)=C/C=C/C(C)=C/C(=O)O)C(C)(C)CCC1 [ATRA, All Trans Retinoic Acid]
- trial outcome [1]: not been successful
- formation of pulmonary emphysema ([2]; mice exposed to cigarette smoke): diminishes the formation of pulmonary emphysema
- distance between alveolar walls ([2]; mice with emphysema produced by cigarette smoke): decreases the distance between alveolar walls
- alveolus formation [3]: induces alveolus formation

Compound: C=C1/C(=C\C=C2/CCC[C@]3(C)[C@@H]([C@H](C)CCCC(C)(C)O)CC[C@@H]23)C[C@@H](O)C[C@@H]1O [calcitriol, 1, 25-Dihydroxycholecalciferol]
- particles in the less than 2.1 micron size range [4]: at least 10%

Compound: vitamin D
- steroid sensitivity [5]: increased steroid sensitivity
- mean increase in FEV1 for every 1 ng/mL increase in systemic vitamin D [6]: 22.7 mL
- airway smooth muscle proliferation [7]: slow

Compound: CCC(=O)OCC(=O)[C@@]1(OC(=O)CC)[C@@H](C)C[C@H]2[C@@H]3CCC4=CC(=O)C=C[C@]4(C)[C@@]3(Cl)[C@@H](O)C[C@@]21C [beclomethasone dipropionate]
- air trapping [8]: significant reduction in air trapping
